39 compounds from patent US9765035B2 (priority 2013, dated 2017) can be followed below.

The target in the test is T1, human PRMT1 (Homo sapiens, UniProt Q99873).
T1 construct: GST-tagged PRMT1; made in house; host or cells: High Five insect cells (baculovirus)
The experiment in a line: biochemical. The source says:
General Materials. S-adenosylmethionine (SAM), S-adenosylhomocysteine (SAH), bicine, Tween20, dimethylsulfoxide (DMSO), bovine skin gelatin (BSG), and Tris(2-carboxyethyl)phosphine hydrochloride solution (TCEP) were purchased from Sigma-Aldrich at the highest level of purity possible. ^3H-SAM was purchase from American Radiolabeled Chemicals with a specific activity of 80 Ci/mmol. 384-well streptavidin Flashplates were purchased from PerkinElmer.
Substrates. Peptide representative of human histone H4 residues 36-50 was synthesized with an N-terminal linker-affinity tag motif and a C-terminal amide cap by 21st Century Biochemicals. The peptide was purified by high-performance liquid chromatography (HPLC) to greater than 95% purity and confirmed by liquid chromatography mass spectrometry (LC-MS). The sequence was Biot-Ahx-[…]-amide (SEQ ID NO.:1).
Molecular Biology: Full-length human PRMT1 isoform 1 (NM_001536.5) transcript clone was amplified from an HEK 293 cDNA library, incorporating flanking 5′ sequence encoding a FLAG tag ([…]) (SEQ ID NO.:2) fused directly to Met 1 of PRMT1. The amplified gene was subcloned into pFastBacI (Life Technologies) modified to encode an N-terminal GST tag and a TEV cleavage sequence
Protein Expression. Recombinant baculovirus were generated according to Bac-to-Bac kit instructions (Life Technologies). Protein over-expression was accomplished by infecting exponentially growing High Five insect cell culture at 1.5×10^6 cell/ml with 1:100 ratio of virus. Infections were carried out at 27° C. for 48 hours, harvested by centrifugation, and stored at −80° C. for purification.
Protein Purification. […] GST-tagged PRMT1 was eluted with 50 mM Tris, 2 mM glutathione, pH 7.8, dialysed in buffer A and concentrated to 1 mg/mL. The purity of recovered protein was 73%. Reference: Wasilko, D. J. and S. E. Lee: “TIPS: titerless infected-cells preservation and scale-up” Bioprocess J., 5 (2006), pp. 29-32.
General Procedure for PRMT1 Enzyme Assays on Peptide Substrates. The assays were all performed in a buffer consisting of 20 mM Bicine (pH=7.6), 1 mM TCEP, 0.005% BSG, and 0.002% Tween 20, prepared on the day of use. Compounds in 100% DMSO (1 ul) were spotted into a polypropylene 384-well V-bottom plates (Greiner) using a Platemate Plus outfitted with a 384-channel head (Thermo Scientific). DMSO (1 ul) was added to Columns 11, 12, 23, 24, rows A-H for the maximum signal control and 1 ul of SAH, a known product and inhibitor of PRMT1, was added to columns 11, 12, 23, 24, rows I-P for the minimum signal control. A cocktail (40 ul) containing the PRMT1 enzyme was added by Multidrop Combi (Thermo-Fisher). The compounds were allowed to incubate with PRMT1 for 30 min at room temperature, then a cocktail (10 ul) containing SAM and peptide was added to initiate the reaction (final volume=51 ul). The final concentrations of the components were as follows: PRMT1 was 0.5 nM, ^3H-SAM was 200 nM, non-radiolabeled SAM was 1.5 uM, peptide was 20 nM, SAH in the minimum signal control wells was 1 mM, and the DMSO concentration was 2%. The assays were stopped by the addition of non-radiolabeled SAM (10 ul) to a final concentration of 300 uM, which dilutes the ^3H-SAM to a level where its incorporation into the peptide substrate is no longer detectable. 50 ul of the reaction in the 384-well polypropylene plate was then transferred to a 384-well Flashplate and the biotinylated peptides were allowed to bind to the streptavidin surface for at least 1 hour before being washed once with 0.1% Tween20 in a Biotek EL×405 plate washer. The plates were then read in a PerkinElmer TopCount plate reader to measure the quantity of ^3H-labeled peptide bound to the Flashplate surface, measured as disintegrations per minute (dpm) or alternatively, referred to as counts per minute (cpm).
Where dpm=disintegrations per minute, cmpd=signal in assay well, and min and max are the respective minimum and maximum signal controls. […]

The mark [1] stands for this setting: biochemical evaluation, peptide substrate, read-out: PRMT1 IC50.
[2] abbreviates: single experiment or average of multiple experiments, read-out: PRMT1 biochemical evaluation (numerical).

Where two headings read alike, the source gives them in different places.

T1 sequence (Q99873 other isoform, or with tags, fused parts or gaps): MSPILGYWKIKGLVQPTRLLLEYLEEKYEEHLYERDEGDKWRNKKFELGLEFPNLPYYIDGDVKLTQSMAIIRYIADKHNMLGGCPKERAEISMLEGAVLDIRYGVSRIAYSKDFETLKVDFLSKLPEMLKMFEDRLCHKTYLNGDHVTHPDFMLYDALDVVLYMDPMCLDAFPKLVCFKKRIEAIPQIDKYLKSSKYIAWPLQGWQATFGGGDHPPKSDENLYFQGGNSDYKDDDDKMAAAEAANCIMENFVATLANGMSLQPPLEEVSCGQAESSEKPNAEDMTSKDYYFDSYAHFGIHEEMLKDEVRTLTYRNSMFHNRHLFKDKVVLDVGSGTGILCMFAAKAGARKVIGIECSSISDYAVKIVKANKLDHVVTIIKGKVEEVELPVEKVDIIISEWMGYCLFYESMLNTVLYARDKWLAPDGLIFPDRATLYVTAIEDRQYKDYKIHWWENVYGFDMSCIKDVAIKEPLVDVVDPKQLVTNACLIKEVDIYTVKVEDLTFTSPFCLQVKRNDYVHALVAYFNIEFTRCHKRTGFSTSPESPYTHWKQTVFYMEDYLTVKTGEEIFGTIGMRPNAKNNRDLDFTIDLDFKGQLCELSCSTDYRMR

As for `CN(CCN)Cc1n[nH]c2ccc(OCc3ccccc3)cc12` [Compound 1B], the IC50 by setting is: under setting [1], below 100 nM; under setting [2], 3.59 nM.
As for `CC(C)COc1ccc2[nH]nc(CN(C)CCN)c2c1` [Compound 2, N1-((5-iso-butoxy-1H-indazol-3-yl)methyl)-N1-methylethane-1,2-diamine], the IC50 under setting [1] was below 100 nM and the IC50 under setting [2] stood at 21 nM.
Take `CNCCN(C)Cc1nn(C)c2ccc(OCC(C)C)cc12` [Compound 3, N^1-((5-iso-butoxy-1-methyl-1H-indazol-3-yl)methyl)-N^1,N^2-dimethylethane-1,2-diamine]: the IC50 under setting [1] is below 100 nM and the IC50 under setting [2] amounted to 56.2 nM.
The like results for `CNCCN(C)Cc1n[nH]c2ccc(OCCOC)cc12` [Compound 5, N^1-((5-(2-methoxyethoxy)-1H-indazol-3-yl)methyl)-N^1,N^2-dimethylethane-1,2-diamine] were, in that order, below 100 nM and 38.5 nM.
As for `CNCCN(C)Cc1n[nH]c2ccc(OCCCOC)cc12` [Compound 6], the IC50 reads like this: under setting [1], below 100 nM; under setting [2], 19 nM.
For `CNCCN(C)Cc1n[nH]c2ccc(OCCc3ccccc3)cc12` [Compound 7], in that order: below 100 nM and 6.6 nM.
For `CNCCN(C)Cc1n[nH]c2ccc(OCCC(C)C)cc12` [Compound 8], in that order: below 100 nM and 7.83 nM.
On to `CNCCN(C)Cc1n[nH]c2ccc(OC(C)Cc3ccccc3)cc12` (stereo not drawn) [Compound 9], for which the IC50 under setting [1] was below 100 nM and the IC50 under setting [2] stood at 10.8 nM.
With `CNCCN(C)Cc1n[nH]c2ccc(Oc3ccccc3)cc12` [Compound 10, N^1,N^2-dimethyl-N^1-((5-phenoxy-1H-indazol-3-yl)methyl)ethane-1,2-diamine], the IC50 is, setting by setting: under setting [1], below 100 nM; under setting [2], 16.2 nM.
As to `CNCCN(C)Cc1n[nH]c2ccc(OC3CCCC3)cc12` [Compound 11], the IC50 runs as follows: under setting [1], below 100 nM; under setting [2], 3.3 nM.
Regarding `CNCCN(C)Cc1n[nH]c2ccc(OCc3ccccn3)cc12` [Compound 12], the IC50 under setting [1] was below 100 nM and the IC50 under setting [2] worked out at 27.2 nM.
On to `CNCCN(C)Cc1n[nH]c2ccc(OCc3ccc(C#N)cc3)cc12` [Compound 13], for which the IC50 is below 100 nM under setting [1] and 86.9 nM under setting [2].
`CNCCN(C)Cc1n[nH]c2ccc(OCc3cccc(C#N)c3)cc12` [Compound 14]: the IC50 is below 100 nM under setting [1] and 23.3 nM under setting [2].
Consider `CNCCN(C)Cc1n[nH]c2ccc(OCc3cc[nH]n3)cc12` [Compound 17], for which the IC50 under setting [1] is below 100 nM and the IC50 under setting [2] was 51.7 nM.
`CNCCN(C)Cc1n[nH]c2ccc(OC3CCCCC3)cc12` [Compound 18]: the IC50 by setting is: under setting [1], below 100 nM; under setting [2], 40.2 nM.
As to `CNCCN(C)Cc1n[nH]c2ccc(OCC(C)c3ccccc3)cc12` (stereo not drawn) [Compound 19], the IC50 is, setting by setting: under setting [1], below 100 nM; under setting [2], 15.9 nM.
In the case of `CNCCN(C)Cc1n[nH]c2ccc(OCc3ccn(C)n3)cc12` [Compound 20], the IC50 runs as follows: under setting [1], below 100 nM; under setting [2], 6.33 nM.
For `CNCCN(C)Cc1n[nH]c2cccc(OCc3ccccc3)c12` [Compound 21], in that order: below 100 nM and 13.1 nM.
As to `CNCCN(C)Cc1n[nH]c2ccc(Oc3cccc(OC)c3)cc12` [Compound 22], the IC50 reads like this: under setting [1], below 100 nM; under setting [2], 11.9 nM.
Regarding `CNCCN(C)Cc1n[nH]c2ccc(OCc3ccc(C(C)=O)cc3)cc12` [Compound 23], the IC50 is below 100 nM under setting [1] and 12 nM under setting [2].
Take `CNCCN(C)Cc1n[nH]c2ccc(Oc3ccccc3OC)cc12` [Compound 24]: the IC50 was below 100 nM under setting [1] and 12.7 nM under setting [2].
Turning to `CNCCN(C)Cc1n[nH]c2ccc(OC3CCOC3)cc12` (stereo not drawn) [Compound 25, N^1,N^2-dimethyl-N^1-((5-((tetrahydrofuran-3-yl)oxy)-1H-indazol-3-yl)methyl)ethane-1,2-diamine], the IC50 by setting is: under setting [1], at most 100 nM; under setting [2], 81.9 nM.
The like results for `CNCCN(C)Cc1n[nH]c2ccc(Oc3cccc(C)c3)cc12` [Compound 26] were, in that order, below 100 nM and 44 nM.
Take `CNCCN(C)Cc1n[nH]c2ccc(Oc3cccc(Cl)c3)cc12` [Compound 27, N^1-((5-(3-chlorophenoxy)-1H-indazol-3-yl)methyl)-N^1,N^2-dimethylethane-1,2-diamine]: the IC50 was below 100 nM under setting [1] and 31.6 nM under setting [2].
For `CNCCN(C)Cc1n[nH]c2ccc(Oc3cccc(C#N)c3)cc12` [Compound 28], in that order: below 100 nM and 22.5 nM.
Consider `CNCCN(C)Cc1n[nH]c2ccc(OC3CCOCC3)cc12` [Compound 29, N^1,N^2-dimethyl-N^1-((5-((tetrahydro-2H-pyran-4-yl)oxy)-1H-indazol-3-yl)methyl)ethane-1,2-diamine], for which the IC50 by setting is: under setting [1], below 100 nM; under setting [2], 28.2 nM.
The like results for `CNCCN(C)Cc1n[nH]c2ccc(Oc3ccccc3Cl)cc12` [Compound 30] were, in that order, below 100 nM and 64.5 nM.
For `CNCCN(C)Cc1n[nH]c2cccc(OCCC(C)C)c12` [Compound 31], the IC50 under setting [1] was at most 100 nM and the IC50 under setting [2] stood at 46.5 nM.
Regarding `CNCCN(C)Cc1nn(C)c2ccc(OCc3ccc(C#N)cc3)cc12` [Compound 32], the IC50 reads like this: under setting [1], 101 to 1000 nM; under setting [2], 73.9 nM.
On to `CNCCN(C)Cc1n[nH]c2ccc(OCc3ccn(CC(C)C)n3)cc12` [Compound 33], for which the IC50 is 101 to 1000 nM under setting [1] and 44.5 nM under setting [2].
With `CNCCN(C)Cc1c2cc(OCc3ccc(C#N)cc3)ccc2nn1C(C)C` [Compound 34], the IC50 is, setting by setting: under setting [1], 3010 to 10000 nM; under setting [2], 182 nM.
For `CNCCN(C)Cc1n[nH]c2ccc(OC)cc12` [Compound 35], in that order: 3010 to 10000 nM and 187 nM.
On to `CNCCN(C)Cc1n[nH]c2ccc(O)cc12` [Compound 36, 3-((methyl(2-(methylamino)ethyl)amino)methyl)-1H-indazol-5-ol], for which the IC50 under setting [1] is 101 to 1000 nM and the IC50 under setting [2] stood at 6760 nM.
Take `CNCCN(C)Cc1n[nH]c2ccc(Oc3ccc(C#N)cc3)cc12` [Compound 37]: the IC50 is, setting by setting: under setting [1], 1010 to 3000 nM; under setting [2], 6420 nM.
As for `CNCCN(C)Cc1nn(C2CCN(C(C)=O)CC2)c2ccc(OCc3ccc(C#N)cc3)cc12` [Compound 38], the IC50 runs as follows: under setting [1], 3010 to 10000 nM; under setting [2], 552 nM.
For the compound `CNCCN(C)Cc1n[nH]c2ccc(Oc3ccc(C(F)(F)F)cc3)cc12` [Compound 39], the IC50 by setting is: under setting [1], below 100 nM; under setting [2], 2270 nM.
Regarding `CNCCN(C)Cc1n[nH]c2cccc(OCCC(O)CO)c12` (stereo not drawn) [Compound 40], the IC50 is, setting by setting: under setting [1], 101 to 1000 nM; under setting [2], 3910 nM.
Take `CNCCN(C)Cc1n[nH]c2cccc(OCCCC(O)CO)c12` (stereo not drawn) [Compound 41, 5-((3-((methyl(2-(methylamino)ethyl)amino)methyl)-1H-indazol-4-yl)oxy)pentane-1,2-diol]: the IC50 under setting [1] was 101 to 1000 nM and the IC50 under setting [2] was 67.6 nM.
For `CNCCN(C)Cc1n[nH]c2ccc(C(C)C)cc12` [Compound 42, N^1-((5-isopropyl-1H-indazol-3-yl)methyl)-N^1,N^2-dimethylethane-1,2-diamine], the IC50 is, setting by setting: under setting [1], at most 100 nM; under setting [2], 774 nM.
